Assay results from ChEMBL document CHEMBL1124519 (J Med Chem, 1989).

Legend:
[1] = Half-life period obtained from linear regression of metabolite concentration in aqueous buffer of pH 7.4 at 37 degrees Celsius in 200 mM phosphate buffer.; type: ADME
L1210 = experiment: The cytotoxicity (LC99) was evaluated in vitro against L1210 cells obtained from cultured mice.; type: functional, Mus musculus
Homo sapiens = organism: Homo sapiens; experiment: Half-life period obtained from linear regression of metabolite concentration in Human plasma containing 100 mM phosphate, at pH 7.4; type: ADME
[2] = Half-life period obtained from linear regression of metabolite concentration in aqueous buffer of pH 7.4 at 37 degrees Celsius in 100 mM phosphate buffer.; type: ADME

Compound | T1/2 [1] [min] | LC99 (L1210) [µM] | T1/2 (Homo sapiens) [min] | T1/2 [2] [min]
O=P(O)(NCCCl)NCCCl [PALIFOSFAMIDE] | 61 | 70 |  | 
O=CCCOP(=O)(NCCCl)NCCCl.O=P1(NCCCl)OCCC(O)N1CCCl |  | 12.6 | 10 | 50
